Laboratory results: patent publication US7981838B2, “Defoliant” (Bayer CropScience AG, priority 2007, dated 2011)

Tested on: Cotton plants of the cultivar "Linda"
Assay: Leaf drop (defoliation) test on cotton plants in climatized chamber, spray application
Format: in vivo
Settings: 300 l/ha water
Procedure: A water application rate of 300 l/ha was initially charged. The components herbicide and adjuvant were then added with stirring at the application rates and in the manner stated in table 1, such that a homogeneous spray liquor was formed. Here, the active ingredients were employed as suspension concentrates. The adjuvant used was Agrotin® (Bayer CropScience).
Cotton seeds of the cultivar “Linda” were sown at a depth of 1 cm and cultivated in a climatized chamber (16 h of light, temperature during the day: 26° C., at night: 20° C.) until they had reached the 8-10 leaf stage.
The plants were treated on a laboratory spray track with spray liquors of thidiazuron and thidiazuron with combination partners. The water application rate for the spray application was 300 l/ha. After the treatment, the plants were returned to the climatized chamber.
1, 2 and 4 weeks after the application, the leaf drop effect was evaluated according to a scale from 0 to 100%: • 0%=no noticeable effect compared to untreated plants • 100%=all leaves have dropped. 2.2 Results for the Combinations of (A) TDZ with (B) Cyprosulfamide

[1] = Table 2, dose 25 g of a.i./ha, 0.2% by weight of Agrotin added
[2] = Table 2, dose 200 g of a.i./ha, 0.2% by weight of Agrotin added

| SMILES | Leaf drop [%] 2 weeks after application (Table 1, dose 35 g of a.i./ha, 1 l of Agrotin added, scale 0-100%) [%] | Leaf drop [%] 1 week after application [1] [%] | Leaf drop [%] 2 weeks after application [1] [%] | Leaf drop [%] 4 weeks after application [1] [%] | Leaf drop [%] 2 weeks after application (Table 1, dose 100 g of a.i./ha, 1 l of Agrotin added, scale 0-100%) [%] | Leaf drop [%] 2 weeks after application (Table 1, dose 200 g of a.i./ha, 1 l of Agrotin added, scale 0-100%) [%] | Leaf drop [%] 1 week after application [2] [%] | Leaf drop [%] 2 weeks after application [2] [%] | Leaf drop [%] 4 weeks after application [2] [%] |
| --- | --- | --- | --- | --- | --- | --- | --- | --- | --- |
| O=C(Nc1ccccc1)Nc1cnns1 [TDZ, thidiazuron] | 67 | 37 | 56 | 63 |  |  |  |  |  |
| COc1ccccc1C(=O)NS(=O)(=O)c1ccc(C(=O)NC2CC2)cc1 [Cyprosulfamide, 4-cyclopropylaminocarbonyl-N-(2-methoxybenzoyl)benzenesulfonamide] |  |  |  |  | 7 | 0 | 0 | 0 | 0 |
